Like-named read-outs stand apart in the source and are kept apart here.

The conditions of data set [1]: ruminants; published in WO 00/28835; cited from earlier work.
For data set [2] the following is noted: HMBi applied to a porous support; compared with WO 00/28835; EP 1358805; cited from earlier work.
For data set [3] the following is noted: European Commission report, 25 Apr. 2003; cited from earlier work.
The conditions of data set [4]: in vivo; cited from earlier work.
For data set [5] the following is noted: feeding experiments with rodents and poultry; compared with MHA; cited from earlier work.

`CSCCC(N)C(=O)OC(C)(C)C` (racemic) [D,L-tert-butylmethionine, reference compound]: the biological value in data set [1] was 80%.

`CSCCC1(O)OCC(C)(C)COC1=O` (racemic) [Example 4, rac-4,4-dimethyl-7-hydroxy-7-(2-(methylthio)ethyl)-6-oxacaprolactone]: the melting point is 109 °C. The same measure, in the same setting: the figure for `CSCCC1(C(=O)O)OCCO1` [Example 2, 2-(2-(methylthio)ethyl)-1,3-dioxolane-2-carboxylic acid] is 74 °C; for `CSCCC12OCC(CO1)OC2=O` [Example 5, 4-(2-(methylthio)ethyl)-2,5,8-trioxabicyclo[2.2.2]octan-3-one] it is 39.5 °C. For `CSCCC(O)C(=O)OC(C)C` (stereo not drawn) [HMBi], the values for the biological value result in data set [1] and in data set [2] were “at least 50%” and “comparable biological value”, respectively. Besides, in data set [3], the “absorbed via the rumen wall” value is “approximately 50%”. Consider `CSCCC(O)C(=O)O` (stereo not drawn) [MHA, hydroxymethylthiobutyric acid], for which the “supplemented MHA that, after absorption in the small intestine, can pass into metabolism” value in data set [4] was 20-40%. For `CSCCC(=O)C(=O)[O-].[Na+]` [sodium salt of α-ketomethionine], the biological value result in data set [5] was “significantly above that of MHA”.

The values are drawn from patent US7815950B2, “Ketomethionine ketals and derivatives thereof” (Evonik Degussa GmbH, priority 2006, dated 2010).
